Laboratory results from US7789958B2, “Non-toxic corrosion-protection pigments based on manganese” (University of Dayton, priority 2003, dated 2010).
Several values for one entry are separate records, joined by “and”; a condition that tells them apart may be missing. Equal values may be shown once.

How the values were obtained:
[1] = cited from earlier work
[2] = ASTM B-117 static salt fog test of PVB wash primers, rated by ASTM D-1654; details: PVB wash primer; for B-117 Proc. A: ASTM D-1654 rating Procedure A; for B-117 Proc. B: ASTM D-1654 rating Procedure B
Procedure: (§1) The corrosion inhibiting performance of MnIII and MnIV pigments was evaluated by incorporating them into primer paint formulations. […] The wash primer is composed of a resin, an acid, a corrosion inhibiting pigment, powdered talc, and carbon lampblack. The acid content of this wash primer provides a rigorous initial test of the stability and performance of the pigments. Other, more benign, polymer-based binder and resin systems might not separate the compounds based on their performance as effectively or as rapidly. […] PVB was used exclusively throughout testing to avoid preparation and compositional complications during analysis of pigment performance. However, the invention is not limited to the use of PVB. […] A small amount (0.2 g) of powdered talc (magnesium silicate) “filler” was added. Lampblack was not added to these samples. These components were mixed thoroughly by hand and 3.8 g of phosphoric acid diluent added with further mixing. This rough processing allowed direct comparisons of pigment performance to be made without complications due to powder treatments, modifications, and additives. […] This is not the conventional paint application procedure for aluminum alloys. Under normal service conditions, aluminum alloys are first subjected to a hexavalent chromium-containing conversion coating prior to primer application. However, the conversion coating was omitted so that the performance of the pigment alone could be evaluated and not the synergistic effects of hexavalent chromium (in the conversion coating) or even of barrier films (in the phosphate or anodized coatings). […] This accelerated corrosion test exposes samples to a constant salt-water fog and is a de facto test of solubility for corrosion inhibitors. […] This accelerated corrosion test exposes samples to a cycle of fog of dilute salt and ammonium sulfate at room temperature followed by forced-air drying at an elevated temperature. This is a more realistic test of the ability of a compound to inhibit corrosion. […] After the paint dried for 24 hours, each plate was scribed with an X and the plate edges were sealed with PVC tape to eliminate corrosion edge effects. Two visual observations are associated with this rating test. Procedure A involves a rating of the failure at the scribe-the representative […] of corrosion away from the scribe. […] In this way, not only the bulk corrosion-inhibiting action of a pigment through the binder can be rated, but also its “throwing power”.

[3] = ASTM G-85.5 cyclic Prohesion test of PVB wash primers, rated by ASTM D-1654; details: PVB wash primer; for G-85 Proc. A: ASTM D-1654 rating Procedure A; for G-85 Proc. B: ASTM D-1654 rating Procedure B
Procedure: as §1

[4] = 7.44 × 10^−4 M (10% of Cr), 117 hours, 2024-T3 (alloy taken from column order of Table 7)
[5] = 7.44 × 10^−4 M (10% of Cr), 117 hours, 7075-T6 (alloy taken from column order of Table 7)
[6] = 7.44 × 10^−4 M (10% of Cr), 139 hours, 2024-T3 (alloy taken from column order of Table 7)
[7] = 7.44 × 10^−4 M (10% of Cr), 139 hours, 7075-T6 (alloy taken from column order of Table 7)
[8] = 1.49 × 10^−3 M (20% of Cr), 144 hours, 2024-T3 (alloy taken from column order of Table 7)
[9] = 1.49 × 10^−3 M (20% of Cr), 144 hours, 7075-T6 (alloy taken from column order of Table 7)

| Molecule | B-117 Proc. A [2, 4] | B-117 Proc. A [2, 5] | G-85 Proc. A [3, 4] | G-85 Proc. A [3, 5] | G-85 Proc. B [3, 4] | G-85 Proc. B [3, 5] | B-117 Proc. A [2, 6] | B-117 Proc. A [2, 7] | B-117 Proc. B [2, 6] | B-117 Proc. B [2, 7] | G-85 Proc. A [3, 6] | G-85 Proc. A [3, 7] | G-85 Proc. B [3, 6] | G-85 Proc. B [3, 7] | further results |
| --- | --- | --- | --- | --- | --- | --- | --- | --- | --- | --- | --- | --- | --- | --- | --- |
| [O]=[Cr](=[O])([O-])[O-].[O]=[Pb].[Pb+2] [basic lead chromate] |  |  |  |  |  |  |  |  |  |  |  |  |  |  | solubility in water relative to lead chromate [1]: slightly lower solubility in water |
| [O]1[Pb][O][Pb]12[O][Pb][O]2 [red lead] |  |  |  |  |  |  |  |  |  |  |  |  |  |  | PbVI solubility ([1]; Glasstone, J. Chem. Soc. 121: 1456-69, 1922): 10^−17 moles/liter Pb^+4 |
| barium 9-molybdomanganate | 4 | 3 | 7 | 8 and 7 | 6 | 7 and 6 |  |  |  |  |  |  |  |  |  |
| barium 13-vanadatomanganate |  |  |  |  |  |  | 7 | 7 | 8 and 7 | 6 | 6 and 7 | 6 | 6 | 5 |  |
| barium hexaiodatomanganate |  |  |  |  |  |  |  |  |  |  |  |  |  |  | B-117 Proc. A [2, 8]: 5; B-117 Proc. A [2, 9]: 5; B-117 Proc. B [2, 8]: 3; B-117 Proc. B [2, 9]: 3; G-85 Proc. A [3, 8]: 7 and 8; G-85 Proc. A [3, 9]: 8 and 7; G-85 Proc. B [3, 8]: 7 and 8; G-85 Proc. B [3, 9]: 8 and 7 |
| calcium 9-molybdomanganate | 6 | 5 | 6 | 7 | 5 | 6 |  |  |  |  |  |  |  |  | B-117 Proc. B [2, 4]: 3; B-117 Proc. B [2, 5]: 4 |
| calcium 13-vanadatomanganate |  |  |  |  |  |  | 8 | 7 | 7 | 6 | 7 | 7 | 6 | 6 |  |
| magnesium 13-vanadatomanganate |  |  |  |  |  |  | 9 | 7 | 7 | 8 | 7 | 6 and 7 | 6 | 5 and 6 |  |
| strontium 9-molybdomanganate | 5 | 4 and 5 | 6 | 6 | 5 | 5 |  |  |  |  |  |  |  |  |  |
| strontium 13-vanadatomanganate |  |  |  |  |  |  | 7 | 7 | 6 | 6 | 6 | 6 | 5 and 6 | 5 and 6 |  |
| zinc 9-molybdomanganate | 5 | 5 | 7 | 7 and 8 | 7 and 6 | 7 |  |  |  |  |  |  |  |  | B-117 Proc. B [2, 4]: 3; B-117 Proc. B [2, 5]: 4 and 3 |
| zinc 13-vanadatomanganate |  |  |  |  |  |  | 8 | 7 | 9 | 8 | 7 | 7 and 6 | 6 and 5 | 6 and 5 |  |
